Data reported in ChEMBL document CHEMBL1201862, “PubChem BioAssay data set” (2004).
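1) Cells in 96-well plates. 2) Compound, 48 h, 5 concentrations. 3) Linear interpolation between surrounding doses. 4) Unreached endpoint = highest concentration. The concentration for 50% growth inhibition is given as GI50.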 The source made the active and inactive calls. Cut-off read from the data, not from the text of the source: active = GI50 up to about 1.1 µM and inactive = higher.

Assays:
Assay in all cases: NCI tumour cell line growth inhibition, 48 h
RPMI-8226 = test system: RPMI-8226
OVCAR-8 = test system: OVCAR-8
CAKI-1 = test system: CAKI-1
EKVX = test system: EKVX
DLD-1 = test system: DLD-1
UACC-257 = test system: UACC-257
SK-MEL-2 = test system: SK-MEL-2
RXF 393 = test system: RXF 393
K562 = test system: K562
OVCAR-5 = test system: OVCAR-5
RXF 631 = test system: RXF 631
HL-60 = test system: HL-60
OVCAR-4 = test system: OVCAR-4
NCI-H460 = test system: NCI-H460
SNB-78 = test system: SNB-78
SR = test system: SR
UACC-62 = test system: UACC-62
XF498 = test system: XF498
MDA-MB-435 = test system: MDA-MB-435
MDA-MB-231 = test system: MDA-MB-231
COLO 205 = test system: COLO 205
SF-539 = test system: SF-539
NCI-H23 = test system: NCI-H23
SNB-75 = test system: SNB-75
HOP-92 = test system: HOP-92
SN12C = test system: SN12C
LXFL 529 = test system: LXFL 529
BT-549 = test system: BT-549
SW-620 = test system: SW-620
MCF7 = test system: MCF7
HCT-15 = test system: HCT-15
HCT-116 = test system: HCT-116
NCI-H226 = test system: NCI-H226
Malme-3M = test system: Malme-3M
SK-MEL-28 = test system: SK-MEL-28
DU-145 = test system: DU-145
NCI/ADR-RES = test system: NCI/ADR-RES
M14 = test system: M14
CCRF-CEM = test system: CCRF-CEM
HCC 2998 = test system: HCC 2998
KM-20L2 = test system: KM-20L2
786-0 = test system: 786-0
A498 = test system: A498
MDA-N = test system: MDA-N
DMS-114 = test system: DMS-114
MOLT-4 = test system: MOLT-4
ACHN = test system: ACHN
NCI-H522 = test system: NCI-H522
IGROV-1 = test system: IGROV-1
UO-31 = test system: UO-31
U-251 = test system: U-251
HOP-62 = test system: HOP-62
SF-268 = test system: SF-268
DMS-273 = test system: DMS-273
KM12 = test system: KM12
SNB-19 = test system: SNB-19
SK-OV-3 = test system: SK-OV-3
HT-29 = test system: HT-29
SF-295 = test system: SF-295
A549 = test system: A549
OVCAR-3 = test system: OVCAR-3
SK-MEL-5 = test system: SK-MEL-5
PC-3 = test system: PC-3
LOX IMVI = test system: LOX IMVI
T47D = test system: T47D
HOP-18 = test system: HOP-18
Hs-578T = test system: Hs-578T
TK-10 = test system: TK-10
M19-MEL = test system: M19-MEL

Nc1nc2[nH]cnc2c(=S)[nH]1 [THIOGUANINE]
GI50 (RPMI-8226): 438 nM (active) | GI50 (OVCAR-8): 687 nM (active) | GI50 (CAKI-1): 621 nM (active) | GI50 (EKVX): 2030 nM (inactive) | GI50 (DLD-1): 962 nM (active) | GI50 (UACC-257): 2100 nM (inactive) | GI50 (SK-MEL-2): 1000 nM (active) | GI50 (RXF 393): 865 nM (active) | GI50 (K562): 385 nM (active) | GI50 (OVCAR-5): 692 nM (active) | GI50 (RXF 631): 527 nM (active) | GI50 (HL-60): 1110 nM (active) | GI50 (OVCAR-4): 1450 nM (inactive) | GI50 (NCI-H460): 624 nM (active) | GI50 (SNB-78): 2230 nM (inactive) | GI50 (SR): 182 nM (active) | GI50 (UACC-62): 537 nM (active) | GI50 (XF498): 1090 nM (active) | GI50 (MDA-MB-435): 851 nM (active) | GI50 (MDA-MB-231): 2510 nM (inactive) | GI50 (COLO 205): 1750 nM (inactive) | GI50 (SF-539): 1050 nM (active) | GI50 (NCI-H23): 1100 nM (active) | GI50 (SNB-75): 1480 nM (inactive) | GI50 (HOP-92): 818 nM (active) | GI50 (SN12C): 1310 nM (inactive) | GI50 (LXFL 529): 8450 nM (inactive) | GI50 (BT-549): 3040 nM (inactive) | GI50 (SW-620): 1450 nM (inactive) | GI50 (MCF7): 701 nM (active) | GI50 (HCT-15): 1080 nM | GI50 (HCT-116): 538 nM (active) | GI50 (NCI-H226): 4410 nM (inactive) | GI50 (Malme-3M): 1280 nM (inactive) | GI50 (SK-MEL-28): 9400 nM (inactive) | GI50 (DU-145): 776 nM (active) | GI50 (NCI/ADR-RES): 671 nM (active) | GI50 (M14): 560 nM (active) | GI50 (CCRF-CEM): 169 nM (active) | GI50 (HCC 2998): 957 nM (active) | GI50 (KM-20L2): 782 nM (active) | GI50 (786-0): 796 nM (active) | GI50 (A498): 6680 nM (inactive) | GI50 (MDA-N): 1010 nM (active) | GI50 (DMS-114): 849 nM (active) | GI50 (MOLT-4): 269 nM (active) | GI50 (ACHN): 1860 nM (inactive) | GI50 (NCI-H522): 895 nM (active) | GI50 (IGROV-1): 4850 nM (inactive) | GI50 (UO-31): 1560 nM (inactive) | GI50 (U-251): 5120 nM (inactive) | GI50 (HOP-62): 780 nM (active) | GI50 (SF-268): 1090 nM (active) | GI50 (DMS-273): 445 nM (active) | GI50 (KM12): 1710 nM (inactive) | GI50 (SNB-19): 76900 nM (inactive) | GI50 (SK-OV-3): 548 nM (active) | GI50 (HT-29): 1130 nM (inactive) | GI50 (SF-295): 1080 nM (active) | GI50 (A549): 3630 nM (inactive) | GI50 (OVCAR-3): 767 nM (active) | GI50 (SK-MEL-5): 3500 nM (inactive) | GI50 (PC-3): 1920 nM (inactive) | GI50 (LOX IMVI): 207 nM (active) | GI50 (T47D): 2070 nM (inactive) | GI50 (HOP-18): 5640 nM (inactive) | GI50 (Hs-578T): 6280 nM (inactive) | GI50 (TK-10): 962 nM (active) | GI50 (M19-MEL): 9820 nM (inactive)

COc1cccc(/C=C2\CCC(CN(C)C)C2=O)c1 (stereo not drawn)
GI50 (RPMI-8226): 995 nM (active) | GI50 (OVCAR-8): 3080 nM (inactive) | GI50 (CAKI-1): 6760 nM (inactive) | GI50 (EKVX): 19300 nM (inactive) | GI50 (DLD-1): 2800 nM (inactive) | GI50 (UACC-257): 3850 nM (inactive) | GI50 (SK-MEL-2): 11800 nM (inactive) | GI50 (RXF 393): 6070 nM (inactive) | GI50 (K562): 1100 nM (active) | GI50 (OVCAR-5): 12100 nM (inactive) | GI50 (RXF 631): 6590 nM (inactive) | GI50 (HL-60): 638 nM (active) | GI50 (OVCAR-4): 9820 nM (inactive) | GI50 (NCI-H460): 16200 nM (inactive) | GI50 (SNB-78): 21700 nM (inactive) | GI50 (SR): 1690 nM (inactive) | GI50 (UACC-62): 8240 nM (inactive) | GI50 (XF498): 18900 nM (inactive) | GI50 (MDA-MB-435): 2610 nM (inactive) | GI50 (MDA-MB-231): 4660 nM (inactive) | GI50 (COLO 205): 4350 nM (inactive) | GI50 (SF-539): 13900 nM (inactive) | GI50 (NCI-H23): 8090 nM (inactive) | GI50 (SNB-75): 17000 nM (inactive) | GI50 (HOP-92): 13700 nM (inactive) | GI50 (SN12C): 5710 nM (inactive) | GI50 (LXFL 529): 2500 nM (inactive) | GI50 (BT-549): 3910 nM (inactive) | GI50 (SW-620): 2210 nM (inactive) | GI50 (MCF7): 2250 nM (inactive) | GI50 (HCT-15): 2580 nM | GI50 (HCT-116): 3070 nM (inactive) | GI50 (NCI-H226): 16300 nM (inactive) | GI50 (Malme-3M): 5810 nM (inactive) | GI50 (SK-MEL-28): 3030 nM (inactive) | GI50 (DU-145): 2740 nM (inactive) | GI50 (NCI/ADR-RES): 2420 nM (inactive) | GI50 (M14): 3600 nM (inactive) | GI50 (CCRF-CEM): 1080 nM (active) | GI50 (HCC 2998): 10800 nM (inactive) | GI50 (KM-20L2): 15800 nM (inactive) | GI50 (786-0): 3500 nM (inactive) | GI50 (A498): 16300 nM (inactive) | GI50 (MDA-N): 4730 nM (inactive) | GI50 (DMS-114): 13900 nM (inactive) | GI50 (MOLT-4): 1440 nM (inactive) | GI50 (ACHN): 11800 nM (inactive) | GI50 (NCI-H522): 2560 nM (inactive) | GI50 (IGROV-1): 8470 nM (inactive) | GI50 (UO-31): 9510 nM (inactive) | GI50 (U-251): 12300 nM (inactive) | GI50 (HOP-62): 12100 nM (inactive) | GI50 (SF-268): 6070 nM (inactive) | GI50 (DMS-273): 12200 nM (inactive) | GI50 (KM12): 4110 nM (inactive) | GI50 (SNB-19): 13500 nM (inactive) | GI50 (SK-OV-3): 15700 nM (inactive) | GI50 (HT-29): 6050 nM (inactive) | GI50 (SF-295): 16600 nM (inactive) | GI50 (A549): 19000 nM (inactive) | GI50 (OVCAR-3): 5040 nM (inactive) | GI50 (SK-MEL-5): 9820 nM (inactive) | GI50 (PC-3): 12400 nM (inactive) | GI50 (LOX IMVI): 1730 nM (inactive) | GI50 (T47D): 2760 nM (inactive) | GI50 (HOP-18): 18600 nM (inactive) | GI50 (Hs-578T): 8710 nM (inactive) | GI50 (TK-10): 10200 nM (inactive) | GI50 (M19-MEL): 4840 nM (inactive)
